Reference: paper PMC9161444, “In-Membrane Nanostructuring of Cationic Amphiphiles Affects Their Antimicrobial Efficacy and Cytotoxicity: A Comparison Study between a De Novo Antimicrobial Lipopeptide and Traditional Biocides” (Langmuir, 2022)
“And” between values parts separate entries of the source, which are not always exact repeats. Identical values can stand only once.

Experiments:
[1] = previous findings by Lu et al.; cited from earlier work
Text: From the best fitted surface tension parameters (listed in Table S2), the area per molecule (APM) could be calculated from eq 4 for each amphiphile at its respective CAC. […] This is in line with the previous findings by Lu et al., which stated that APMs of C10TAB, C12TAB, C14TAB, C16TAB, and C18TAB adsorbed on the surface of water were 55 ± 3, 50 ± 2, 48 ± 3, 43 ± 3, and 43 ± 3 Å^2, respectively.[29]−[33] Each lipopeptide molecule occupied around 79 ± 10 Å^2 at ...

[2] = tested on: Human dermal fibroblasts cells (adult, HDFa cells); type: cell-based; conditions: MTT assay, 24 h exposure, 37 °C, absorbance 570 nm, sigmoidal fit; ± SD, at least three replicates; read-out: EC50, HDFa
Method: Human dermal fibroblasts cells (adult, HDFa cells) and NIH 3T3 fibroblasts cells (3T3 cells, ATCC-1658) were cultured at 37 °C in Dulbecco’s modified Eagle medium (ATCC30-2002, added with 10% heat-inactivated fetal bovine serum) with a continuous supply of CO2 at a 5% level. MTT assays were carried out to examine in vitro cytotoxicity of the amphiphiles.[22] Cells were first inoculated in flat-bottom 96-well plates, rendering 8 × 10^3 cells in 100 μL of medium for each well, and were incubated for 24 h. The cells were mixed with 100 μL of a solution of an amphiphile with 2 times the selected concentrations. Cells were then exposed to the solutions of each amphiphile for 24 h, after which 10 μL of 5 mg/mL MTT solution was added into each well, and the reaction was allowed for 2 h. 200 μL of dimethyl sulfoxide was then added to each well to dissolve the transformed MTT formazan. Light absorbance of the samples was measured using a Thermo Scientific Varioskan LUX at 570 nm. Cell samples 100% viable and 100% dead were employed as the positive control and negative control, respectively. Dose response curves were obtained by applying sigmoidal function fittings to obtain 50% effective concentrations (EC50).

S. aureus (ATCC 6538) = type: cell-based, Staphylococcus aureus; conditions: for MIC/CAC, converted data, S. aureus: MIC divided by the amphiphile's CAC; for MIC, S. aureus: microdilution, serial half-dilution in PBS, Mueller Hinton broth, 37 °C, 24 h, 10^6 CFU/mL, by eye and OD600, ± SD, at least three replicates
Method: (§1) E. coli (ATCC 25922), S. aureus (ATCC 6538), and C. albicans SC5314 (ATCC MYA-2876) were purchased from the American Type Culture Collection (ATCC). The two bacterial strains, E. coli and S. aureus, were cultured in Mueller Hinton broth at 37 °C; while the yeast strain, C. albicans, was grown in RPMI 1640 medium at 30 °C. The microdilution method was employed to determine MICs of the amphiphiles against the microorganism strains listed above.[21] Solutions of lipopeptides and biocides were half-diluted serially in 96-well plates using PBS buffer containing 137 mM NaCl, 2.7 mM KCl, 8.1 mM Na2HPO4, and 1.9 mM KH2PO4 for E. coli and S. aureus and using RPMI 1640 for C. albicans. Overnight incubations of the strains, in each respective growth medium, were then inoculated into each well, giving final concentrations of 10^6 CFU/mL for E. coli and S. aureus and 10^5 CFU/mL for C. albicans. Culture media without microorganisms and amphiphiles were employed as positive controls, while fresh microorganism cultures without amphiphiles were used as negative controls. Each plate has both positive controls and negative controls. The plates were then incubated at an appropriate temperature (stated above) for 24 h for the bacterial strains and 48 h for the yeast strain. MICs of each sample were first determined by eye. A more quantitative analysis was carried out by measuring optical densities at 600 nm (OD600) of each well using a Sunrise absorbance microplate reader (Tecan Group Ltd.). Inhibitory ratios (IRs) of each sample at a given concentration against a specific strain, denoted as IRi, were calculated by IRi = (OD600,negative control – OD600,i)/(OD600,negative control – OD600,positive control) × 100%. All experiments were repeated at least three times with each group containing three replicates. To better analyze concentration–IR relationships, sigmoidal function fittings were employed to generate the best fitted dose response curve for each situation.

[3] = Surface tension measurements (CAC, area per molecule); type: physicochemical; conditions: Krüss K11, 25 °C, PBS or saline (171.5 mM NaCl, pH 7.2) of equivalent ionic strength, saline for C14KKGGII, points repeated at least three times
Method: Surface tensions of salt solutions of the amphiphiles were measured using a Krüss Force Tensiometer K11 at 25 °C. Saline (171.5 mM NaCl, final pH 7.2) instead of phosphate-buffered saline (PBS) was used to dissolve the samples of peptide C14KKGGII in order to avoid gelation above 0.1 mM. The ionic strength of the saline solution was the same as that of the PBS (consisting of 137 mM NaCl, 2.7 mM KCl, 8.1 mM Na2HPO4, and 1.9 mM KH2PO4, pH 7.2) solution employed in antimicrobial assays. Concentration effects on the surface tension were investigated for each amphiphile, and its CAC in the buffer environment was determined. All the data points were repeated at least three times. Quadratic functions were used to fit the surface tension at low concentrations below their CACs, while linear functions were used to fit the high concentration regions above the CACs for all three amphiphiles: [drawing 1] 1 [drawing 2] 2 where γ represents the surface tension in milli-newtons per meter, C is the amphiphile concentration in millimolar, and a1, b1, b2, c1, and c2 are the best fitted parameters. Intersections of the two lines give the estimated CACs of the amphiphiles. The Gibbs equation for solutions with a constant and excess salt is [drawing 3] […] The areas per molecule for the three amphiphiles at their CACs were calculated using [drawing 6] […]

E. coli (ATCC 25922) = type: cell-based, Escherichia coli; conditions: for MIC/CAC, converted data, E. coli: MIC divided by the amphiphile's CAC; for MIC, E. coli: microdilution, serial half-dilution in PBS, Mueller Hinton broth, 37 °C, 24 h, 10^6 CFU/mL, by eye and OD600, ± SD, at least three replicates
Method: as §1

Structure (SMILES)	APM adsorbed on the surface of water [1]	EC50 [2]	MIC/CAC, converted data, S. aureus (S. aureus (ATCC 6538))	MIC, S. aureus (S. aureus (ATCC 6538))	CAC (critical aggregation concentration) [3]	MIC/CAC, converted data, E. coli (E. coli (ATCC 25922))	MIC, E. coli (E. coli (ATCC 25922))
CCCCCCCCCCCC[N+](C)(C)C.[Br-] [C12TAB, dodecyltrimethylammonium bromide]	50 ± 2 Å^2	17 ± 5 µM	0.03 ± 0.01	25 ± 7 µM	~1000 ± 100 µM	0.20 ± 0.04	200 ± 40 µM
CCCCCCCCCCCCCC[N+](C)(C)C.[Br-] [C14TAB, tetradecyltrimethylammonium bromide]	48 ± 3 Å^2	7 ± 3 µM	0.06 ± 0.04	6 ± 4 µM		1 and 1.00 ± 0.30	100 ± 30 µM
